We go through 1 compound from US11952582B2, “Herbicide-resistance gene and application thereof in plant breeding” (priority 2017, dated 2024).

“Also recorded” adds a separate entry of the source.

In assay [1] the test system is Arabidopsis WT, OE At, OE Pa, OE M3 plants. The assay is described as follows: Total chlorophyll and carotenoid content of Arabidopsis rosette leaves. The assay is classed as in vivo, Arabidopsis thaliana. The protocol: The leaves (rosette leaves) of 2 week-old plants grown in ^1/2 MS medium containing different concentrations (0, 100, 250, 500 and 1000 nM) of mesotrione were collected, including leaves of OE At, OE Pa, OE M3 and WT. The total chlorophyll and carotenoid were extracted and the content thereof was detected by referring to the method of Lichtenthaler HK (1987). All experiments were repeated biologically 3 times, and the average value was taken.

Assay [2] deals with WT and T0 OE SDM rice seedlings. The assay is described as follows: Rice resistance to herbicide at pot level (spray). The assay is classed as in vivo. The conditions noted are these: 200 μM spray, 21 d (3 weeks). Here is the method: Transgenic T0 generation OE SDM and WT rice seedlings were planted in pots containing soil and placed in an artificial climate room (30° C. 16 h light/28° C. 8 h dark) for growth. 3 weeks later, when the rice seedlings reached a height of 15-20 cm, 200 μM mesotrione (prepared with 0.1% Tween-20) and 0.1% Tween-20 were sprayed to OE SDM and WT rice seedlings, respectively. Then, the phenotype should be observed every week. The oxidative stress index was measured 1 week after the treatment, the chlorophyll content of the leaves was measured 2 weeks after the treatment, and the experimental result was photographed 3 weeks after the treatment.

In assay [3] the test system is WT (William 82) and OE PaHPPD-SDM soybean leaves. In words: Soybean resistance to herbicide at leaf level (leaf coating). The assay is classed as in vivo. The note with it: leaf coating 0-30 μM, 2 weeks. Here is the method: Transgenic T0 generation OE SDMHPPD and WT soybean (William 82) seedlings were planted in pots and placed in an artificial climate room (27° C., […], light/dark) for growth. After 4 weeks, 0, 1, 5, 10 and 30 μM of mesotrione (prepared with 0.1% Tween-20) and 0.1% Tween-20 were dipped with cotton swabs and evenly coated to the leaves of OE SDMHPPD (OE SDM #12 and OE SDM #13) T0 generation and WT seedlings having a height of 30-40 cm. Then, the phenotype was observed every week, and the experimental result was recorded by taking photos 2 weeks after the treatment.
To further test the resistance of transgenic soybeans to herbicides, 20 μM mesotrione (prepared with 0.1% Tween-20) and 0.1% Tween-20 were dipped with cotton swabs and evenly coated to the trifoliate leaves of 2 week-old WT, OE GmHPPD (OE GmHPPD #9) T1 generation seedlings and OE SDMHPPD (OE SDMHPPD #12) T1 generation. Then, the phenotype was observed every day, and the experimental result was recorded by taking photos 10 days after the treatment.

As to `CS(=O)(=O)c1ccc(C(=O)C2C(=O)CCCC2=O)c([N+](=O)[O-])c1` [mesotrione], in assay [1] (WT, OE At, OE Pa and OE M3, 0-1000 nM in 1/2 MS medium), the “total chlorophyll and carotenoid content of leaves with the increase of herbicide concentration” value is given as “decreased”. Further, in assay [1] (same herbicide concentration), the “total chlorophyll and carotenoid content of OE M3 compared with WT, OE At and OE Pa” value was “significantly higher”. For the same compound, the phenotype of leaves/plants entry is “grew well; also recorded: very small visible signs of damage” in assay [2] (OE SDM rice line (T0)); “albino and the growth was inhibited until death; also recorded: withered and died” in assay [2] (WT rice). The “concentration at which leaves did not show symptoms of albino (bleaching) and damage” value in assay [3] (OE PaHPPD-SDM soybean line) is 30 µM. Moreover, in assay [3] (wild-type soybean William 82), the “concentration at which leaves showed albino (bleaching) symptom” value stood at 5 µM.
